According to patent US11840528B2 (Hoffmann-La Roche Inc., priority 2018, dated 2023):

Experiments:
[1] = target: T1, h-GABA-A α5β3γ2 (Homo sapiens, UniProt P18507+P31644); assay: [3H]flumazenil competition binding assay, membranes of HEK293 cells expressing GABAA receptors; conditions: displacement of [3H]-Flumazenil 0.5 nM, HEK293 cells expressing human receptors, mean of two determinations; Table 1
Method in brief: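 Membranes from HEK293 cells transiently expressing human α5β3γ2 GABAA receptors, in Krebs-tris buffer pH 7.5, competed against [3H]flumazenil for 1 hour at 4° C to equilibrium. Bound radioactivity collected on GF/C filters and counted by liquid scintillation; Ki values are means of two determinations.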

[2] = target: T1, h-GABA-A α5β3γ2; assay: Two-electrode voltage clamp electrophysiology in Xenopus laevis oocytes expressing GABAA receptors, modulation of GABA EC20 current; type: cell-based; set-up: host or cells: Xenopus laevis oocytes micro-injected with RNA transcripts of the subunits; conditions: Table 1; for Efficacy (GABA) %: % modulation of GABA EC20 = 100*(Fold increase-1); for Fold increase h-GABA-A α5β3γ2 oocyte: test compound at approx. 30 fold its Ki, GABA at EC20
Method in brief: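 Human α5β3γ2 GABAA receptors were expressed in Xenopus oocytes by RNA injection, with γ2 RNA 5–10-fold higher, and recorded 3–5 days later by two-electrode voltage clamp at −80 mV at room temperature. The test compound, at about 30× its Ki, was co-applied during a second GABA EC20 pulse. Efficacy is the extremum of the point-by-point ratio to the first response, expressed as 100*(Fold increase−1).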

| Ki [1] [nM] | Efficacy (GABA) % [2] [%] | Fold increase h-GABA-A α5β3γ2 oocyte [2] | Structure (SMILES) |
| --- | --- | --- | --- |
| 6.4 | 221 | 3.21 | Cc1ccc(-c2noc(C)c2Cn2ncc(-c3cc(C)nc(C)c3)cc2=O)cn1 [Example 192, 5-(2,6-dimethylpyridin-4-yl)-2-((5-methyl-3-(6-methylpyridin-3-yl)isoxazol-4-yl)methyl)pyridazin-3(2H)-one] |
| 1.4 | 70 | 1.7 | Cc1onc(-c2ccc(Cl)nn2)c1Cn1ncc(N2CC3(C2)CC(F)(F)CO3)cc1=O [Example 269, 2-((3-(6-chloropyridazin-3-yl)-5-methylisoxazol-4-yl)methyl)-5-(7,7-difluoro-5-oxa-2-azaspiro[3.4]octan-2-yl)pyridazin-3(2H)-one] |
| 9.4 | 134 | 2.34 | Cc1ccc(-c2noc(C)c2Cn2ncc(N3CC(Oc4cccnc4)C3)cc2=O)cn1 [Example 126, 2-[[5-methyl-3-(6-methyl-3-pyridyl)isoxazol-4-yl]methyl]-5-[3-(3-pyridyloxy)azetidin-1-yl]pyridazin-3-one] |
| 0.7 | 94 | 1.94 | Cc1onc(-c2ccc(Cl)cn2)c1Cn1ncc(N2C[C@@H](C)O[C@@H](C)C2)cc1=O [Example 13, 2-((3-(5-Chloropyridin-2-yl)-5-methylisoxazol-4-yl)methyl)-5-(cis-2,6-dimethylmorpholino)pyridazin-3(2H)-one] |
| 35.8 | 136 | 2.36 | Cc1onc(-c2ccc(Cl)nc2)c1Cn1ncc(N2CC(OC(C)C(F)(F)F)C2)cc1=O (single isomer, unassigned) [Example 266] |
| 24 | 81 | 1.81 | Cc1ccc(-c2noc(C)c2Cn2ncc(-c3ccc(OC(F)(F)F)cc3)cc2=O)cn1 [Example 114, 2-((5-methyl-3-(6-methyl-3-pyridyl)isoxazol-4-yl)methyl)-5-(4-(trifluoromethoxy)phenyl)pyridazin-3-one] |
| 6.5 | 127 | 2.27 | Cc1ccc(-c2noc(C)c2Cn2ncc(N3CC4(CC(C(F)(F)F)CCO4)C3)cc2=O)nn1 (single isomer, unassigned) [Example 312] |
| 14.4 | 134 | 2.34 | CCOC1CN(c2cnn(Cc3c(-c4ccc(C)nc4)noc3C)c(=O)c2)C1 [Example 99, 5-(3-ethoxyazetidin-1-yl)-2-[[5-methyl-3-(6-methyl-3-pyridyl)isoxazol-4-yl]methyl]pyridazin-3-one] |
| 1.5 | 166 | 2.66 | C[C@@H]1CN(c2cnn(Cc3c(-c4ccc(Cl)cn4)noc3C3CC3)c(=O)c2)C[C@H](C)O1 [Example 14, 2-((3-(5-Chloropyridin-2-yl)-5-cyclopropylisoxazol-4-yl)methyl)-5-(cis-2,6-dimethylmorpholino)pyridazin-3(2H)-one] |
| 28.4 | 247 | 3.47 | CC1(C(=O)N2CCN(c3cnn(Cc4c(-c5ccc(Cl)cn5)noc4C4CC4)c(=O)c3)CC2)CC1 [Example 26, 2-((3-(5-Chloropyridin-2-yl)-5-cyclopropylisoxazol-4-yl)methyl)-5-(4-(1-methylcyclopropanecarbonyl)piperazin-1-yl)pyridazin-3(2H)-one] |
| 64.6 | 92 | 1.92 | CNc1cnn(Cc2c(-c3ccc(C)nc3)noc2C)c(=O)c1 [Example 78, 2-((5-methyl-3-(6-methylpyridin-3-yl)isoxazol-4-yl)methyl)-5-(methylamino)pyridazin-3(2H)-one] |
| 2.2 | 195 | 2.95 | CCn1nccc1C1CCN(c2cnn(Cc3c(-c4ccc(C)nc4)noc3C)c(=O)c2)CC1 [Example 167, 5-[4-(2-ethylpyrazol-3-yl)-1-piperidyl]-2-[[5-methyl-3-(6-methyl-3-pyridyl)isoxazol-4-yl]methyl]pyridazin-3-one] |
| 33.4 | 247 | 3.47 | Cc1ccc(-c2noc(C)c2Cn2ncc(N3CC[C@@H](C(=O)NC4CC4)C3)cc2=O)cn1 [Example 56, (3R)—N-cyclopropyl-1-[1-[[5-methyl-3-(6-methyl-3-pyridyl)isoxazol-4-yl]methyl]-6-oxo-pyridazin-4-yl]pyrrolidine-3-carboxamide] |
| 36.2 | 193 | 2.93 | Cc1ccc(-c2noc(C3CC3)c2Cn2ncc(N3CC4(CCCCO4)C3)cc2=O)nn1 [Example 259, 2-[[5-cyclopropyl-3-(6-methylpyridazin-3-yl)isoxazol-4-yl]methyl]-5-(5-oxa-2-azaspiro[3.5]nonan-2-yl)pyridazin-3-one] |
| 2.7 | 158 | 2.58 | Cc1ccc(-c2noc(C)c2Cn2ncc(N3CC[C@@H](C)C3)cc2=O)cn1 [Example 178, 2-[[5-methyl-3-(6-methyl-3-pyridyl)isoxazol-4-yl]methyl]-5-[(3R)-3-methylpyrrolidin-1-yl]pyridazin-3-one] |
| 2.2 | 111 | 2.11 | CCOC1CN(c2cnn(Cc3c(-c4ccc(C)nn4)noc3C)c(=O)c2)C1 [Example 170, 5-(3-ethoxyazetidin-1-yl)-2-[[5-methyl-3-(6-methylpyridazin-3-yl)isoxazol-4-yl]methyl]pyridazin-3-one] |
| 34.3 | 126 | 2.26 | Cc1onc(-c2ccc(Cl)nc2)c1Cn1ncc(N2CCC3(CC2)COC3)cc1=O [Example 258, 2-((3-(6-chloropyridin-3-yl)-5-methylisoxazol-4-yl)methyl)-5-(2-oxa-7-azaspiro[3.5]nonan-7-yl)pyridazin-3(2H)-one] |
| 71.1 | 73 | 1.73 | Cc1onc(-c2ccc(Cl)nc2)c1Cn1ncc(N2CC3(C[C@H](C)CCO3)C2)cc1=O [Example 322, (R)-2-((3-(6-chloropyridin-3-yl)-5-methylisoxazol-4-yl)methyl)-5-(8-methyl-5-oxa-2-azaspiro[3.5]nonan-2-yl)pyridazin-3(2H)-one] |
| 10.4 | 87 | 1.87 | Cc1ccc(-c2noc(C)c2Cn2ncc(-c3ccc(OC(C)C)cc3)cc2=O)cn1 [Example 115, 5-(4-isopropoxyphenyl)-2-((5-methyl-3-(6-methyl-3-pyridyl)isoxazol-4-yl)methyl)pyridazin-3-one] |
| 6.4 | 71 | 1.71 | COc1ccc(-c2cnn(Cc3c(-c4ccc(C)nc4)noc3C)c(=O)c2)cc1 [Example 76, 5-(4-methoxyphenyl)-2-[[5-methyl-3-(6-methylpyridin-3-yl)-1,2-oxazol-4-yl]methyl]pyridazin-3-one] |
| 36.2 | 102 | 2.02 | Cc1ccc(-c2noc(C)c2Cn2ncc(N3CC4(CCC(F)CO4)C3)cc2=O)cn1 (single isomer, unassigned) [Example 276] |
| 15.1 | 160 | 2.6 | Cc1ccc(-c2noc(C)c2Cn2ncc(N3CC4(C[C@H](OC(F)F)CO4)C3)cc2=O)cn1 [Example 204, 5-[(7S)-7-(difluoromethoxy)-5-oxa-2-azaspiro[3.4]octan-2-yl]-2-[[5-methyl-3-(6-methyl-3-pyridyl)isoxazol-4-yl]methyl]pyridazin-3-one] |
| 58.7 | 164 | 2.64 | Cc1ccc(-c2noc(CF)c2Cn2ncc(N3CC4(CCC(F)CO4)C3)cc2=O)nn1 (single isomer, unassigned) [Example 329] |
| 13.5 | 145 | 2.45 | Cc1ccc(-c2noc(C)c2Cn2ncc(N3CCN(CC(F)(F)F)CC3)cc2=O)cn1 [Example 31, 2-[[5-methyl-3-(6-methyl-3-pyridyl)isoxazol-4-yl]methyl]-5-[4-(2,2,2-trifluoroethyl)piperazin-1-yl]pyridazin-3-one] |
| 18.8 | 40 | 1.4 | Cc1onc(-c2ccc(Cl)cc2)c1Cn1ncc(N2CC3(CCCO3)C2)cc1=O [Example 162, 2-[[3-(4-chlorophenyl)-5-methyl-isoxazol-4-yl]methyl]-5-(5-oxa-2-azaspiro[3.4]octan-2-yl)pyridazin-3-one] |
| 12.6 | 70 | 1.7 | Cc1ccc(-c2noc(CF)c2Cn2ncc(N3CC4(CCCCO4)C3)cc2=O)nn1 [Example 328, 2-((5-(fluoromethyl)-3-(6-methylpyridazin-3-yl)isoxazol-4-yl)methyl)-5-(5-oxa-2-azaspiro[3.5]nonan-2-yl)pyridazin-3(2H)-one] |
